Where a name gives a salt, the structure may show the parent alone.
Molecular target: Glycogen synthase kinase-3 beta (Homo sapiens, UniProt P49841)
Experiment: GSK3beta kinase inhibitor potency, dose response, biochemical, luminescence, cell-free homogeneous, retest (AID 434954)

Sequence of Glycogen synthase kinase-3 beta (P49841 whole entry): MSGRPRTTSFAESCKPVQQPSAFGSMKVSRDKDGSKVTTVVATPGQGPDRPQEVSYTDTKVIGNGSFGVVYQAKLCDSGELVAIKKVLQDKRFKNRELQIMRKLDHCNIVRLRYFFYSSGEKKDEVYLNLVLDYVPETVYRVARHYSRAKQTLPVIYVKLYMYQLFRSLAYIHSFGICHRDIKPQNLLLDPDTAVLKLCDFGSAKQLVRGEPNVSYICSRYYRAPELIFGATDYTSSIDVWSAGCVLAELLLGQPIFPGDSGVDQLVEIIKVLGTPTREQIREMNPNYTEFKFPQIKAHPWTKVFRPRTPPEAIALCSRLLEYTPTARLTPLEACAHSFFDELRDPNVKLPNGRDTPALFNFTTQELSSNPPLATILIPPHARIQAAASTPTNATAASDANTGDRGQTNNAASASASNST

Compound	EC50 [µM]
COc1cc2c(O)c3c(c(-c4ccc5c(c4)OCO5)c2cc1OC)C(=O)OC3 [9-(1,3-benzodioxol-5-yl)-4-hydroxy-6,7-dimethoxy-3H-benzo[f][2]benzofuran-1-one]	4.42
O=C(Oc1ccc(F)c(F)c1)c1ccc2c(=O)n3c(nc2c1)CCC3 [9-oxo-2,3-dihydro-1H-pyrrolo[2,1-b]quinazoline-6-carboxylic acid (3,4-difluorophenyl) ester]	> 300
O=C1CCCC2=Nc3ncnn3C(c3cccs3)C12 (configuration not stated) [9-thiophen-2-yl-5,6,7,9-tetrahydro-1H-[1,2,4]triazolo[5,1-b]quinazolin-8-one]	> 300
O=C(Nc1ccccc1)ON=C1c2ccccc2-c2ccccc21 [9H-fluoren-9-one O-(anilinocarbonyl)oxime]	> 300
CC1(C)CC(=O)C2C(=NC3=C(C(=O)c4ccccc43)C2c2ccc(O)cc2)C1 (configuration not stated) [10-(4-hydroxyphenyl)-7,7-dimethyl-5,6,8,10-tetrahydroindeno[1,2-b]quinoline-9,11-dione]	> 300
Nc1ncnc2c1ccn2[C@@H]1O[C@H](CO)[C@@H](O)[C@H]1O ['2-(4-AMINO-PYRROLO[2,3-D]PYRIMIDIN-7-YL)-5-HYDROXYMETHYL-TETRAHYDRO-FURAN-3,4-DIOL]	> 300
NNc1ncnc2c1cnn2-c1ccccc1 [(1-phenylpyrazolo[3,4-d]pyrimidin-4-yl)diazane]	12.8
COc1ccc(OC)c(C(=O)c2coc3ccc(O)cc23)c1 [(2,5-dimethoxyphenyl)-(5-hydroxy-1-benzofuran-3-yl)methanone]	> 300
COc1ccc(OC)c(C(=O)c2coc3ccc(O)c(CN(C)C)c23)c1 [(2,5-dimethoxyphenyl)-[4-[(dimethylamino)methyl]-5-oxidanyl-1-benzofuran-3-yl]methanone;hydrochloride]	> 300
O=C(COc1ccccc1[N+](=O)[O-])N/N=C/c1ccc[nH]1 [(2-Nitro-phenoxy)-acetic acid [1-(1H-pyrrol-2-yl)-meth-(E)-ylidene]-hydrazide]	> 300
O=C(COc1ccccc1[N+](=O)[O-])NN=Cc1ccccn1 [(2-Nitro-phenoxy)-acetic acid [1-pyridin-2-yl-meth-(E)-ylidene]-hydrazide]	> 300
COC(=O)Cc1ccc2sc(-c3ccccc3)nc2c1 [(2-Phenyl-benzothiazol-5-yl)-acetic acid methyl ester]	> 300
CN(CC(=O)OCC(=O)Nc1ccccc1)S(=O)(=O)c1ccc(Cl)cc1 [(2-anilino-2-oxoethyl) 2-[(4-chlorophenyl)sulfonyl-methylamino]acetate]	> 300
Cc1nc(Nc2ccccc2)sc1C(=O)c1ccccc1 [(2-anilino-4-methyl-1,3-thiazol-5-yl)(phenyl)methanone]	19.8
CCOC(=O)COC(=O)c1ccc(O)cc1 [(2-ethoxy-2-oxoethyl) 4-hydroxybenzoate]	> 300
O=C1Nc2cc(C(=O)NCCCN3CCCC3)ccc2S/C1=C/c1ccccc1F [(2E)-2-[(2-fluorophenyl)methylidene]-3-oxo-N-(3-pyrrolidin-1-ylpropyl)-4H-1,4-benzothiazine-6-carboxamide]	6.99
O=C1Nc2cc(C(=O)NCCCN3CCOCC3)ccc2S/C1=C/c1ccccc1F [(2E)-2-[(2-fluorophenyl)methylidene]-N-(3-morpholin-4-ylpropyl)-3-oxo-4H-1,4-benzothiazine-6-carboxamide]	18.2
CCN1CCN(CCNC(=O)c2ccc3c(c2)NC(=O)/C(=C\c2ccc(OC)c(OC)c2)S3)CC1 [(2E)-2-[(3,4-dimethoxyphenyl)methylidene]-N-[2-(4-ethylpiperazin-1-yl)ethyl]-3-oxidanylidene-4H-1,4-benzothiazine-6-carboxamide]	16.3
COc1ccc(/C=C2/Sc3ccc(C(=O)NCCCN4CCOCC4)cc3NC2=O)cc1OC [(2E)-2-[(3,4-dimethoxyphenyl)methylidene]-N-[3-(4-morpholinyl)propyl]-3-oxo-4H-1,4-benzothiazine-6-carboxamide]	60.3
O=C1Nc2cc(C(=O)NCCCN3CCOCC3)ccc2S/C1=C/c1cccc(Cl)c1 [(2E)-2-[(3-chlorophenyl)methylidene]-N-(3-morpholin-4-ylpropyl)-3-oxidanylidene-4H-1,4-benzothiazine-6-carboxamide]	15.1
COc1cccc(/C=C2/Sc3ccc(C(=O)NCCN4CCCC4)cc3NC2=O)c1 [(2E)-2-[(3-methoxyphenyl)methylidene]-3-oxo-N-(2-pyrrolidin-1-ylethyl)-4H-1,4-benzothiazine-6-carboxamide]	2.81
Cc1cccc(/C=C2/Sc3ccc(C(=O)NCCN4CCCC4)cc3NC2=O)c1 [(2E)-2-[(3-methylphenyl)methylidene]-3-oxidanylidene-N-(2-pyrrolidin-1-ylethyl)-4H-1,4-benzothiazine-6-carboxamide]	6.28
Cc1cccc(/C=C2/Sc3ccc(C(=O)NCCCN4CCOCC4)cc3NC2=O)c1 [(2E)-2-[(3-methylphenyl)methylidene]-N-(3-morpholin-4-ylpropyl)-3-oxidanylidene-4H-1,4-benzothiazine-6-carboxamide]	> 300
COc1ccc(/C=C2/Sc3ccc(C(=O)NCCN4CCCCCC4)cc3NC2=O)cc1 [(2E)-N-[2-(azepan-1-yl)ethyl]-2-[(4-methoxyphenyl)methylidene]-3-oxo-4H-1,4-benzothiazine-6-carboxamide]	> 300

Compound	EC50 [µM]
CCN1CCN(CCCNC(=O)c2ccc3c(c2)NC(=O)/C(=C\c2cccc(C)c2)S3)CC1 [(2E)-N-[3-(4-ethyl-1-piperazinyl)propyl]-2-[(3-methylphenyl)methylidene]-3-oxo-4H-1,4-benzothiazine-6-carboxamide]	16.1
CNc1nc2c(N)ncnc2n1[C@H]1O[C@@H](CO)[C@H](O)[C@@H]1O [(2S,3S,4R,5S)-2-[6-amino-8-(methylamino)purin-9-yl]-5-(hydroxymethyl)oxolane-3,4-diol]	> 300
COc1ccc(/C=C2\Sc3ccc(C(=O)NCCCN4CCCC4)cc3N(C)C2=O)cc1OC [(2Z)-2-[(3,4-dimethoxyphenyl)methylidene]-4-methyl-3-oxo-N-(3-pyrrolidin-1-ylpropyl)-1,4-benzothiazine-6-carboxamide]	> 300
CCN1/C(=C/c2ccc3cccc(C)c3[n+]2CC)Sc2ccccc21 [(2Z)-3-ethyl-2-[(1-ethyl-8-methyl-2-quinolin-1-iumyl)methylidene]-1,3-benzothiazole;iodide]	> 300
O=C1Nc2cc(C(=O)NCCCN3CCCC3)ccc2S/C1=C\c1ccccc1 [(2Z)-3-oxidanylidene-2-(phenylmethylidene)-N-(3-pyrrolidin-1-ylpropyl)-4H-1,4-benzothiazine-6-carboxamide]	5.9
COc1ccccc1/C=C/C=C1\Oc2c(ccc(O)c2CN(C)C)C1=O [(2Z)-7-[(dimethylamino)methyl]-6-hydroxy-2-[(E)-3-(2-methoxyphenyl)prop-2-enylidene]-1-benzofuran-3-one]	33.8
COc1ccccc1/C=C/C=C1\Oc2c(ccc(O)c2CN2CCN(CCO)CC2)C1=O [(2Z)-7-[[4-(2-hydroxyethyl)piperazin-1-yl]methyl]-2-[(E)-3-(2-methoxyphenyl)prop-2-enylidene]-6-oxidanyl-1-benzofuran-3-one]	> 300
COc1ccc(/C=C2\Sc3ccc(C(=O)NCCN4CCCCCC4)cc3N(C)C2=O)cc1 [(2Z)-N-[2-(azepan-1-yl)ethyl]-2-[(4-methoxyphenyl)methylidene]-4-methyl-3-oxo-1,4-benzothiazine-6-carboxamide]	43.3
CCOc1ccc(C(=O)NCC(=O)OCc2c(C)noc2C)cc1 [(3,5-dimethyl-1,2-oxazol-4-yl)methyl 2-[(4-ethoxybenzoyl)amino]acetate]	> 300
C[C@H](NC(=O)[C@@H]1CSC2c3ccccc3C(=O)N21)C(=O)NCc1c(F)cccc1Cl (stereo partly drawn) [(3R)-N-[(2S)-1-[(2-chloro-6-fluorophenyl)methylamino]-1-oxopropan-2-yl]-5-oxo-3,9b-dihydro-2H-thiazolo[2,3-a]isoindole-3-carboxamide]	> 300
O=C1Nc2ccccc2C1C=Nc1ccc2c(c1)OCO2 (configuration not stated) [(3Z)-3-[(1,3-benzodioxol-5-ylamino)methylidene]-1H-indol-2-one]	11.4
CCOC(=O)COc1ccc(C(=O)c2ccccc2)c(O)c1 [(4-Benzoyl-3-hydroxy-phenoxy)-acetic acid ethyl ester]	> 300
O=C(c1ccc(Cl)cc1)c1coc2ccc(O)cc12 [(4-Chloro-phenyl)-(5-hydroxy-benzofuran-3-yl)-methanone]	13.4
Cc1ccc(C(=O)c2coc3ccc(O)c(CN(C)C)c23)cc1 [(4-Dimethylaminomethyl-5-hydroxy-benzofuran-3-yl)-p-tolyl-methanone]	> 300
Fc1ccc(Nc2nc(-c3ccncc3)nc3ccccc23)cc1 [(4-Fluoro-phenyl)-(2-pyridin-4-yl-quinazolin-4-yl)-amine]	> 300
Nc1nc(Nc2ccccc2)sc1C(=O)c1ccccc1 [(4-azanyl-2-phenylazanyl-1,3-thiazol-5-yl)-phenyl-methanone]	0.171
CCCCc1cc(=O)oc2cc(OS(C)(=O)=O)ccc12 [(4-butyl-2-oxidanylidene-chromen-7-yl) methanesulfonate]	> 300
Cc1ccc(C(=O)c2coc3ccc(O)c(Cl)c23)cc1 [(4-chloro-5-hydroxy-3-benzofuranyl)-(4-methylphenyl)methanone]	> 300
O=C(Oc1ccc(Cl)cc1)N1CCCCC1 [(4-chlorophenyl) piperidine-1-carboxylate]	> 300
CCOc1ccc2nc(N3CCC(C(=O)N4CCN(C5CCCCC5)CC4)CC3)sc2c1 [(4-cyclohexyl-1-piperazinyl)-[1-(6-ethoxy-1,3-benzothiazol-2-yl)-4-piperidinyl]methanone]	> 300
CCc1ccc(C(=O)c2cnc3ccc(OC)cc3c2N2CCN(CC)CC2)cc1 [(4-ethylphenyl)-[4-(4-ethylpiperazin-1-yl)-6-methoxy-quinolin-3-yl]methanone]	20.7
COc1ccc(COC(=O)c2cccc(S(=O)(=O)N3CCN(C(C)=O)CC3)c2)cc1 [(4-methoxyphenyl)methyl 3-(4-acetylpiperazin-1-yl)sulfonylbenzoate]	> 300
CN1CCN(C(=O)c2ccc(OCCOc3ccccc3)cc2)CC1 [(4-methylpiperazin-1-yl)-[4-(2-phenoxyethoxy)phenyl]methanone]	> 300
